Where two headings read alike, the source gives them in different places. One block for each compound: values may come before it.
Key:
[1] = Table 2, previously reported sensors, cited from earlier work; for Kd: read-out: Kd(Zn^2+)
[2] = Photochemical characterization of ZIGIRs in vitro (absorption, emission, quantum yield); format: physicochemical; details: for fluorescence quantum yield: Zn^2+-bound state; for ε (extinction coefficient): in M-1·cm-1 (unit assumed); for ϕfl × ε (fluorescence brightness): in M^-1 cm^-1 (unit assumed)
Description: (§1) UV-Vis spectra were recorded in a 1-cm path quartz cell on a Shimadzu 2401 PC spectrometer. Fluorescence excitation and emission spectra were recorded on a Fluorolog 3 spectrometer (Jobin-Yvon Horiba, Edison, N.J.). Zinc titration was performed by adding ZIGIRs (0.5 μM final concentration) to buffered Zn^2+ solutions containing 100 mM HEPES (pH 7.4). Nitrilotriacetic acid (NTA, 10 mM) and varying concentrations of ZnSO4 (0-9 mM) were mixed to reach free Zn^2+ concentrations between 0.1 nM and 40 nM (Li et al., 2011). Zn^2+ concentrations above 40 nM were controlled by iminodiacetate (IDA, 10 mM) and varying amounts of ZnSO4 (0-9.7 mM) in 100 mM HEPES (pH 7.4; Sasaki et al., 2011). To determine Zn^2+ binding dissociation constants (Kd(Zn^2+)), the Zn^2+ titration data were fitted to the least square exponential equation (Prism 7). Fluorescence quantum yields of ZIGIRs at pH 7.5 were determined using rhodamine 6G as the reference (Φfl=0.94 in MeOH; Magde et al., 2002). An example in shown FIGS. 11A0B. To examine the pH sensitivity of ZIGIRs, the fluorescence emission spectra was recorded from pH 3-9.4 in either nominally Zn^2+-free solutions containing 5 mM iminodiacetate or in 25 μM ZnSO4 solutions. The pH was controlled with 10 mM pH buffers including chloroacetic acid (pH 3.1), acetate (pH 4.1 and 5.0), 2-morpholinoethanesulfonic acid (MES, pH 6.14), HEPES (pH 7.5) and N-cyclohexyl-2-aminoethanesulfonic acid (CHES, pH 9.4).

[3] = Zn^2+ titration of ZIGIRs by fluorescence emission (Hill plot); format: binding
Description: as §1

[4] = pH sensitivity of ZIGIR fluorescence; format: physicochemical; details: same Zn^2+ level
Description: as §1, with “The pH was controlled with 10 mM pH buffers including chloroacetic acid (pH 3.1), acetate (pH 4.1 and 5.0), 2-morpholinoethanesulfonic acid (MES, pH 6.14), HEPES (pH 7.5) and N-cyclohexyl-2-aminoethanesulfonic acid (CHES, pH 9.4).” left out

[5] = Metal ion selectivity of fluorescence response; format: physicochemical; details: 1 μM sensor, 10 μM TPEN; against Na^+, K^+, Ca^2+, Mg^2+, Fe^2+, Ni^2+, Co^2+, Cu^2+, Mn^2+
Description: To study the metal selectivity, the fluorescence of ZIGIR-1 (1 μM) or ZIGIR-2 (1 μM) was measured in the presence of 10 μM TPEN and an excess of metal ion including 1 mM KCl, 1 mM NaCl, 1 mM CaSO4, 1 mM MgSO4, 15 μM MnSO4, 15 μM FeSO4, 15 μM NiSO4, 15 μM CoCl2, 15 μM CuSO4, 15 μM CdSO4 or 15 μM ZnSO4. The emission intensity was normalized to that of 15 μM ZnSO4 (100%).

Compound: COc1cc(O)c(-c2nc3c(CNCc4ccccn4)cccc3o2)cc1OC [ZINbo-5]
Kd [1]: 2.2 nM

absorption maximum [2]: around 555 nm | emission maximum [2]: ~580 nm | fluorescence quantum yield [2]: 18%
Compound: CCN(CC)c1ccc2c(-c3ccc(NCCN(CCc4ccccn4)Cc4ccccn4)cc3C(=O)[O-])c3ccc(=[N+](CC)CC)cc-3oc2c1 [ZIGIR-3]

Compound: COc1ccc(N(CC(=O)O)CC(=O)O)c(OCCOc2cc(-c3c4cc(F)c(=O)cc-4oc4cc(O)c(F)cc34)ccc2NCC(=O)O)c1 [FluoZin-3]
Zn^2+ response (fold change) [1]: >100× | Kd [1]: 15 nM

fluorescence enhancement upon Zn^2+ binding [3]: 50 fold | Kd ([3]; 100 mM HEPES pH 7.4): 290 nM | absorption maximum [2]: ~520 nm | bathochromic shift in absorption maximum from Zn^2+-free to Zn^2+-bound state [2]: 4 nm | λabd^max ([2]; Zn^2+ bound): 521 nm | λem^max ([2]; Zn^2+ bound): 543 nm | ϕfl (fluorescence quantum yield) ([2]; Zn^2+ bound): 0.30 | ε (extinction coefficient) ([2]; Zn^2+ bound): 112,000 | ϕfl × ε (fluorescence brightness) ([2]; Zn^2+ bound): 33,600 | λabd^max ([2]; Zn^2+ free): 517 nm | λem^max ([2]; Zn^2+ free): 547 nm | ϕfl (fluorescence quantum yield) ([2]; Zn^2+ free): 0.008 | ε (extinction coefficient) ([2]; Zn^2+ free): 85,200 | ϕfl × ε (fluorescence brightness) ([2]; Zn^2+ free): 682 | fluorescence quantum yield [2]: 30% | fluorescence signal at pH 7.5 versus pH 5.0 [4]: essentially the same fluorescence signal
Compound: CN=c1ccc2c(-c3ccc(NCCN(CCc4ccccn4)Cc4ccccn4)cc3C(=O)O)c3ccc(NC)cc3oc-2c1 [ZIGIR-1]
FC (fold change in fluorescence brightness ϕfl×ε from Zn^2+-free to Zn^2+-bound state) [3]: 50 | selectivity of fluorescence response for Zn^2+ [5]: selective for Zn^2+

Compound: Cc1cc2c(c(CN(Cc3ccccn3)Cc3cnccn3)c1)OC1(CC2)C(C)c2ccccc2N1C (centres unmarked) [SpiroZin2]
Zn^2+ response (fold change) [1]: 8× | Kd [1]: 3.6 nM

Source: patent US11649228B2, “Zinc indicators for cellular imaging” (The Board of Regents of the University of Texas System, priority 2018, dated 2023)
